This is an account of results in publication PMC12302339 (Journal of Advanced Research, 2024).

One data set concerns p42. In kind it is binding, Xanthomonas oryzae pv. oryzae.
In data set [1] the test system is A549, human non-small cell lung cancer cells. Description: cells. In kind it is cell-based.
A further data set in a line: in vivo. The following applies: Brachydanio rerio (zebrafish).
A further data set has as its system rice. The following applies: in vivo.

In brackets after ≈: the same amount, converted by molar mass.

As to `C#CCN(C(=O)C=C)c1ncnc2ccc(Br)cc12` [probe P1, N-(6-bromoquinazolin-4-yl)-N-(prop-2-yn-1-yl)acrylamide], in the data set on p42, the “proteome labeling in situ or in vitro” value is “prominent labeling”, the “time after which p42 was visualized” value is 5 min and the “time to complete labeling of p42” value was found to be 2 h.
Regarding `O=c1[nH]cc(F)c(=O)[nH]1` [5-FU, 5-fluorouracil, reference compound], in data set [1], the IC50 was 1.42 µM.
As to `C=CC(=O)Nc1ncnc2ccc(Br)cc12` [compound 7a, N-(6-bromoquinazolin-4-yl)acrylamide], in “in vivo”, the LC50 at 48 h amounted to 0.53 µg/mL (≈ 1.91 µM), the LC50 at 72 h was determined as 0.48 µg/mL (≈ 1.73 µM) and the LC50 at 96 h is 0.48 µg/mL (≈ 1.73 µM). Also, the IC50 in data set [1] was determined as 23.1 µM. In the data set on rice, the “phytotoxicity on rice leaves” value is listed as “no signs of damage”. The “competition of probe P1 labeling of p42” value in the data set with p42 was “dose-dependently competed”.
Turning to `C#CCNc1ncnc2ccccc12` [NP, N-(prop-2-yn-1-yl)quinazolin-4-amine], in the data set on p42, the “proteome labeling in situ or in vitro” value is on record as “failed to label any proteins”.
